Results published in US20240150360A1 (THE REGENTS OF THE UNIVERSITY OF MICHIGAN, priority 2021, published 2024).
Read-outs that look alike come from different tables or passages of the source.

Assays:
22Rv1 cells = experiment: Cell growth inhibition assay (CellTiter-Glo) in 22Rv1; format: cell-based, human; conditions: 22Rv1 cells, 96 h incubation, read-out: Cell Growth Inhibition (IC50) 22Rv1
Method: Biological Assays. CBP/p300 degradation activity and cell growth inhibition were evaluated in the human prostate cancer cell line 22Rv1 (ATCC© CRL-2505™) purchased from the American Type Culture Collection (ATCC), Manassas, VA, and maintained and cultured in Dulbecco's Modified Eagle's medium (DMEM) containing 10% fetal bovine serum, 1 unit/ml of penicillin and 1 μg/ml of streptomycin. Cells with 3-8 passages after purchase were used in experiments.
Cell Growth Inhibition Assay Protocol. 22RV1 cells were seeded at a concentration of 4000 cells/well in 100 μl culture medium and 2 μl of test compound (final concentration start from 10 μM and 3 times dilution) into 96 well microplates (Corning 3903). The cell cultures were incubated for 96 h at +37° C. and 5% CO2. The plate and its contents were equilibrated to room temperature for approximately 30 minutes. 100 μl of CellTiter-Glo® 2.0 Reagent equal to the volume of cell culture medium present was added in each well. The contents were mixed for 2 minutes on an orbital shaker. The plate was allowed to incubate at room temperature for 10 minutes. The luminescence was recorded. The data was analyzed by Prism GraphPad 8.

HL60 = experiment: Cell growth inhibition in HL60; format: cell-based; conditions: read-out: Cell Growth Inhibition (IC50) HL60
CBP = target: T1, CBP (Homo sapiens, UniProt Q92793); experiment: CBP degradation in 22Rv1 cells (5 h); format: cell-based; conditions: 22Rv1 cells, 5 h; for Dmax: 22Rv1, 5 h, read-out: CBP Degradation (22Rv1, 5 h) DCmax
T1 construct: endogenous in cells; host or cells: 22Rv1 (ATCC CRL-2505) human prostate cancer cells
T1 sequence (Q92793 whole entry): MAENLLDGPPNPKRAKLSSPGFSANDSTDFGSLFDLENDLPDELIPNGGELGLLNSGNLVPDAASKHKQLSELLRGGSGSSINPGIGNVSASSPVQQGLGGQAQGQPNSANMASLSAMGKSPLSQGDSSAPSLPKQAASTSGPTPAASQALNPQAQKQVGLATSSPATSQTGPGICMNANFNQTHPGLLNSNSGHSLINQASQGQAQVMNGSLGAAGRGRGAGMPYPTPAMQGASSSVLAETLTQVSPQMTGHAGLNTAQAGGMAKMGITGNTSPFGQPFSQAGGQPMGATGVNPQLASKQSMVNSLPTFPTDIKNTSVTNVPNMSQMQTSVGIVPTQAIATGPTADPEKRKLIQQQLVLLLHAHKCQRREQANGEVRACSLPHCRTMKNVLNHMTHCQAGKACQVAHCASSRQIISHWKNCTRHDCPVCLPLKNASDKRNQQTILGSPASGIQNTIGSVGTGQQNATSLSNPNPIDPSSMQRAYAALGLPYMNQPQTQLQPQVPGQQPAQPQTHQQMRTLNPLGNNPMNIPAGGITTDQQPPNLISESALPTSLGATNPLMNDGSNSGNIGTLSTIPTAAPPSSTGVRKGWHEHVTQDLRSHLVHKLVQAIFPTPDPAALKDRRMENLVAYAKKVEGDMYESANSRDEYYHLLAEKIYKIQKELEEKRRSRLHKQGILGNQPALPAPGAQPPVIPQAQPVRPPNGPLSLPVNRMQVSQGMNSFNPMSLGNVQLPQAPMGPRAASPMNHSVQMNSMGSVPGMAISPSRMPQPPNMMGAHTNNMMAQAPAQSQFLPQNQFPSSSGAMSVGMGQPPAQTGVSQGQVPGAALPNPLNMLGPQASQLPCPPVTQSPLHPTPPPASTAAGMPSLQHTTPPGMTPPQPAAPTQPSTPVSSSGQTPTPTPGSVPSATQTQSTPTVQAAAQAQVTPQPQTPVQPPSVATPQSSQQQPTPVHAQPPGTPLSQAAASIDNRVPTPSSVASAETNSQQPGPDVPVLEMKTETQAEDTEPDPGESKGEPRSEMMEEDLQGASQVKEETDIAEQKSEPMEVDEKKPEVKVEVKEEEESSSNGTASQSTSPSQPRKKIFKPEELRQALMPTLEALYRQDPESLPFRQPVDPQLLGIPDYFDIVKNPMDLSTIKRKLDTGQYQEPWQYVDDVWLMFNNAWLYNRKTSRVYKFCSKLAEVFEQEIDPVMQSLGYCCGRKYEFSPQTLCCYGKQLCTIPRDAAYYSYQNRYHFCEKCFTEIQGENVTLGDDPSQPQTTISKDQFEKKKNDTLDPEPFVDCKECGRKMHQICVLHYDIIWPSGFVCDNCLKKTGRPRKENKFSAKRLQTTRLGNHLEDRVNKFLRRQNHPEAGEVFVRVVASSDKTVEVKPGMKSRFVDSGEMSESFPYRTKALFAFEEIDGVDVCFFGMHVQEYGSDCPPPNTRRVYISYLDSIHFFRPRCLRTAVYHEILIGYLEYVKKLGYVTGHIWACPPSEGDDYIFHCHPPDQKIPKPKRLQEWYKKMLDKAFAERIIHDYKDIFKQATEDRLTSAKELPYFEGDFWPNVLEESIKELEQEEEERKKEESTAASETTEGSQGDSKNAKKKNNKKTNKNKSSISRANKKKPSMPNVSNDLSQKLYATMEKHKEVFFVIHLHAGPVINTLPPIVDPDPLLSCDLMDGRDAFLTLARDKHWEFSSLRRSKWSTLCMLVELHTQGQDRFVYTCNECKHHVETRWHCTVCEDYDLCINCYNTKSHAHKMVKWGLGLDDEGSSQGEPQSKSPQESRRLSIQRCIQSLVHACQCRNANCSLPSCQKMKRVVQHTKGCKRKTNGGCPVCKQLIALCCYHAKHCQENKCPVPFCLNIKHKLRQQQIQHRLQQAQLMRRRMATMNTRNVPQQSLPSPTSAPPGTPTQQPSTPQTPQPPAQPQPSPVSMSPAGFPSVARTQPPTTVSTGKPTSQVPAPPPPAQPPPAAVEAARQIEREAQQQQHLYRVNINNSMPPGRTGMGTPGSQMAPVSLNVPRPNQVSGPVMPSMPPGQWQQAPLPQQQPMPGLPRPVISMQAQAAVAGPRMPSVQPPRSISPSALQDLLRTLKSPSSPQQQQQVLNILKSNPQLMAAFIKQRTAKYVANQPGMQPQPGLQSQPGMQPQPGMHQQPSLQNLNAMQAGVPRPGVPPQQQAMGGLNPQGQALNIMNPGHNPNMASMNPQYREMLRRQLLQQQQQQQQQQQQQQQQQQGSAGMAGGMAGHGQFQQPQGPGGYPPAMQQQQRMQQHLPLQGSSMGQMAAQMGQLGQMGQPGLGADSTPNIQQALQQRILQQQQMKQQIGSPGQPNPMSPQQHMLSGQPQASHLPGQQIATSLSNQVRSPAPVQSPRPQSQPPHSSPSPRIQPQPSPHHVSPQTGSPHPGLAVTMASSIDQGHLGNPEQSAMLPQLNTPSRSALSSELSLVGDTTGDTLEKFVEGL
Excerpt: Biological Assays. […] Cells with 3-8 passages after purchase were used in experiments.

[1] = Homo sapiens, HL-60, HL60 cells

Compound	IC50 (22Rv1 cells)	IC50 (HL60; HL60 cells)	CBP Degradation (22Rv1, 5 h) DCmax (CBP)	DC50 (CBP)	IC50 (22Rv1 cells; Homo sapiens, 22Rv1, 96 h)	IC50 (HL60; [1])	Dmax (CBP)
CC(=O)N1CCc2c(c(N3CCCc4cc(-c5cnn(C)c5)c(C(F)F)cc43)nn2C2CCC(C(=O)N3Cc4cc5c(cc4C3)C(=O)N(C3CCC(=O)NC3=O)C5=O)CC2)C1 (stereo not shown) [CP-034, 6-(4-(5-acetyl-3-(7-(difluoromethyl)-6-(1-methyl-1H-pyrazol-4-yl)-3,4-dihydroquinolin-1(2H)-yl)-4,5,6,7-tetrahydro-1H-pyrazolo[4,3-c]pyridin-1-yl)cyclohexane-1-carbonyl)-2-(2,6-dioxopiperidin-3-yl)-6,7-dihydropyrrolo[3,4-f]isoindole-1,3(2H,5H)-dione]	< 1000 nM	< 100 nM	+++ (>90% = +++)	< 10 nM	–	–	–
CC(=O)N1CCc2c(c(N3CCCc4ccc(C(F)F)cc43)nn2C2CCN(C(=O)CN3Cc4cc5c(cc4C3)C(=O)N(C3CCC(=O)NC3=O)C5=O)CC2)C1 (stereo not shown) [CP-010, 6-(2-(4-(5-acetyl-3-(7-(difluoromethyl)-3,4-dihydroquinolin-1(2H)-yl)-4,5,6,7-tetrahydro-1H-pyrazolo[4,3-c]pyridin-1-yl)piperidin-1-yl)-2-oxoethyl)-2-(2,6-dioxopiperidin-3-yl)-6,7-dihydropyrrolo[3,4-f]isoindole-1,3(2H,5H)-dione]	–	–	–	< 100 nM	> 10000 nM	< 1000 nM	> 70%
CC(=O)N1CCc2c(c(N3CCCc4cc(-c5cnn(C)c5)c(C(F)F)cc43)nn2C[C@H]2CC[C@H](C(=O)N3Cc4cc5c(cc4C3)C(=O)N(C3CCC(=O)NC3=O)C5=O)CC2)C1 (stereo partly drawn) [CP-029, trans-6-(4-((5-acetyl-3-(7-(difluoromethyl)-6-(1-methyl-1H-pyrazol-4-yl)-3,4-dihydroquinolin-1(2H)-yl)-4,5,6,7-tetrahydro-1H-pyrazolo[4,3-c]pyridin-1-yl)methyl)cylcohexane-1-carbonyl)-2-(2,6-dioxopiperidin-3-yl)-6,7-dihydropyrrolo[3,4-f]isoindole-1,3(2H,5H)-dione]	–	–	–	< 100 nM	< 10000 nM	< 10000 nM	> 50%
CC(=O)N1CCc2c(c(N3CCCc4cc(-c5cnn(C)c5)c(C(F)F)cc43)nn2C2CCN(CC(=O)N3CCc4cc5c(cc4C3)C(=O)N(C3CCC(=O)NC3=O)C5=O)CC2)C1 (stereo not shown) [CP-002, 6-(2-(4-(5-acetyl-3-(7-(difluoromethyl)-6-(1-methyl-1H-pyrazol-4-yl)-3,4-dihydroquinolin-1(2H)-yl)-4,5,6,7-tetrahydro-1H-pyrazolo[4,3-c]pyridin-1-yl)piperidin-1-yl)acetyl)-2-(2,6-dioxopiperidin-3-yl)-5,6,7,8-tetrahydro-1H-pyrrolo[3,4-g]isoquinoline-1,3(2H)-dione]	–	–	–	< 10 nM	< 10000 nM	< 1000 nM	> 90%
CC(=O)N1CCc2c(c(N3CCCc4cc(-c5cnn(C)c5)c(C(F)F)cc43)nn2C[C@H]2CC[C@@H](N3CCc4cc5c(cc4C3)C(=O)N(C3CCC(=O)NC3=O)C5=O)CC2)C1 (relative stereo) [CP-042, 6-(4-((5-acetyl-3-(7-(difluoromethyl)-6-(1-methyl-1H-pyrazol-4-yl)-3,4-dihydroquinolin-1(2H)-yl)-4,5,6,7-tetrahydro-1H-pyrazolo[4,3-c]pyridin-1-yl)methyl)cyclohexyl)-2-(2,6-dioxopiperidin-3-yl)-5,6,7,8-tetrahydro-1H-pyrrolo[3,4-g]isoquinoline-1,3(2H)-dione]	–	–	–	< 10 nM	< 1000 nM	< 100 nM	> 90%
CC(=O)N1CCc2c(c(N3CCCc4cc(-c5cnn(C)c5)c(C(F)F)cc43)nn2C2CCN(C(=O)CCN3CCc4cc5c(cc4C3)C(=O)N(C3CCC(=O)NC3=O)C5=O)CC2)C1 (stereo not shown) [CP-003, 6-(3-(4-(5-acetyl-3-(7-(difluoromethyl)-6-(1-methyl-1H-pyrazol-4-yl)-3,4-dihydroquinolin-1(2H)-yl)-4,5,6,7-tetrahydro-1H-pyrazolo[4,3-c]pyridin-1-yl)piperidin-1-yl)-3-oxopropyl)-2-(2,6-dioxopiperidin-3-yl)-5,6,7,8-tetrahydro-1H-pyrrolo[3,4-g]isoquinoline-1,3(2H)-dione]	–	–	–	< 100 nM	< 10000 nM	< 1000 nM	> 50%
CC(=O)N1CCc2c(c(N3CCCc4cc(-c5cnn(C)c5)c(C(F)F)cc43)nn2C2CCC(CC(=O)N3CCc4cc5c(cc4C3)C(=O)N(C3CCC(=O)NC3=O)C5=O)CC2)C1 (stereo not shown) [CP-028, 6-(2-(4-(5-acetyl-3-(7-(difluoromethyl)-6-(1-methyl-1H-pyrazol-4-yl)-3,4-dihydroquinolin-1(2H)-yl)-4,5,6,7-tetrahydro-1H-pyrazolo[4,3-c]pyridin-1-yl)cyclohexyl)acetyl)-2-(2,6-dioxopiperidin-3-yl)-5,6,7,8-tetrahydro-1H-pyrrolo[3,4-g]isoquinoline-1,3(2H)-dione]	–	–	–	< 10 nM	< 1000 nM	< 100 nM	> 50%
CC(=O)N1CCc2c(c(N3CCCc4cc(-c5cnn(CCCCCN6Cc7cc8c(cc7C6)C(=O)N(C6CCC(=O)NC6=O)C8=O)c5)c(C(F)F)cc43)nn2C2CCOCC2)C1 (stereo not shown) [CP-067, 6-(5-(4-(1-(5-acetyl-1-(tetrahydro-2H-pyran-4-yl)-4,5,6,7-tetrahydro-1H-pyrazolo[4,3-c]pyridin-3-yl)-7-(difluoromethyl)-1,2,3,4-tetrahydroquinolin-6-yl)-1H-pyrazol-1-yl)pentyl)-2-(2,6-dioxopiperidin-3-yl)-6,7-dihydropyrrolo[3,4-f]isoindole-1,3(2H,5H)-dione]	–	–	–	< 10 nM	< 100 nM	< 100 nM	> 90%
CC(=O)N1CCc2c(c(N3CCCc4cc(-c5cnn(C)c5)c(C(F)F)cc43)nn2C[C@H]2CC[C@@H](C(=O)N3Cc4cc5c(cc4C3)C(=O)N(C3CCC(=O)NC3=O)C5=O)CC2)C1 (stereo partly drawn) [CP-031, cis-6-(4-((5-acetyl-3-(7-(difluoromethyl)-6-(1-methyl-1H-pyrazol-4-yl)-3,4-dihydroquinolin-1(2H)-yl)-4,5,6,7-tetrahydro-1H-pyrazolo[4,3-c]pyridin-1-yl)methyl)cyclohexane-1-carbonyl)-2-(2,6-dioxopiperidin-3-yl)-6,7-dihydropyrrolo[3,4-f]isoindole-1,3(2H,5H)-dione]	–	–	–	< 100 nM	< 10000 nM	< 1000 nM	> 50%
CC(=O)N1CCc2c(c(N3CCCc4cc(-c5cnn(C)c5)c(C(F)F)cc43)nn2C2CCN(C(=O)CN3CCc4cc5c(cc4C3)C(=O)N(C3CCC(=O)NC3=O)C5=O)CC2)C1 (stereo not shown) [CP-001, 6-(2-(4-(5-acetyl-3-(7-(difluoromethyl)-6-(1-methyl-1H-pyrazol-4-yl)-3,4-dihydroquinolin-1(2H)-yl)-4,5,6,7-tetrahydro-1H-pyrazolo[4,3-c]pyridin-1-yl)piperidin-1-yl)-2-oxoethyl)-2-(2,6-dioxopiperidin-3-yl)-5,6,7,8-tetrahydro-1H-pyrrolo[3,4-g]isoquinoline-1,3(2H)-dione]	–	–	–	< 10 nM	< 100 nM	< 100 nM	> 90%
